Usually melting point stands for the temperature of the solid-liquid transition.

Each structure is given as a SMILES string.

In turn, `CS(=O)(=O)Oc1cnc(-c2cc(O)c(Cl)cc2F)c(Cl)c1` [Ia.362, 2-(4-chloro-2-fluoro-5-hydroxyphenyl)-3-chloro-5-(methylsulfonyl-oxy) pyridine] showed a melting point of 132 to 133 °C.
In the case of `COc1cc(-c2ncc(OS(C)(=O)=O)cc2Cl)c(F)cc1Cl` [Ia.363, 2-(4-chloro-2-fluoro-5-methoxyphenyl)-3-chloro-5-(methylsulfonyl-oxy)pyridine] it was 118 to 120 °C.
